Values quoted from earlier work in patent US9801891B2, “Compositions and methods for lowering intraocular pressure” (ALLERGAN, INC., priority 2009, dated 2017).

Tested on: alpha-2 adrenoceptor

SMILES: Brc1c(N=C2NCCN2)ccc2nccnc12.O=C(O)C(O)C(O)C(=O)O [Brimonidine tartrate, 5-bromo-6-(2-imidazolidinylideneamino) quinoxaline L-tartrate]
- Selectivity for the alpha-2 adrenoceptor over the alpha-1 adrenoreceptor: 1000 fold
